SMILES strings stand for the structures. Entries after “also recorded” stand apart in the source; their conditions may differ.

In this assay the test system is HFD-fed INK-ATTAC mice. Kind of assay: Open field test, chow/HFD INK-ATTAC mice treated with AP20187. The class given is in vivo, mouse. How it is done:
INK-ATTAC mice were injected intraperitoneally (i.p.) with AP20187 (10 mg/kg) or vehicle for 3 days every 2 weeks for a total of 8-10 weeks.
Locomotor activity and anxiety-like behavior of mice were assessed in sound-insulated, rectangular activity chambers (Med Associates Inc., St Albans, Vt., USA: W×L×D=27 cm×27 cm×20 cm with continually running fans, infrared lasers, and sensors). Beam breaks were assessed in 2-minute bins over 30 minutes, converted automatically to current mouse location and distance travelled (cm), and recorded on a computer with Med-PC software Version 4.0. Before the test, mice were acclimatized to the room for 1-1.5 hours before being introduced into the chambers. Mice were habituated for 5 minutes in the Open Field chamber (without recording) then placed for another 5 minutes in the home cage. Afterwards, mice were introduced back to the chambers and all mouse movements were recorded for 30 minutes. Anxiety was quantified by the distance mice travelled in the central 25% of the chamber (zone 1) as a function of the total distance mice travelled and by frequencies of entries into zone 1.

Setting [1] is: INK-ATTAC mice on HFD, AP20187 10 mg/kg i.p. 3 days every 2 weeks, 8-10 weeks, vs vehicle.

In the case of `CC[C@H](C(=O)N1CCCC[C@H]1C(=O)O[C@H](CCc1ccc(OC)c(OC)c1)c1cccc(OCC(=O)NCC(CNC(=O)COc2cccc([C@@H](CCc3ccc(OC)c(OC)c3)OC(=O)[C@@H]3CCCCN3C(=O)[C@@H](CC)c3cc(OC)c(OC)c(OC)c3)c2)CN(C)C)c1)c1cc(OC)c(OC)c(OC)c1` [AP], under setting [1], the “anxiety-like behavior: distance travelled in the central zone (as function of total distance), open field” value is on record as “alleviated; also recorded: reduced HFD-induced anxiety-like behavior” and the “anxiety-like behavior: entries into the central zone, open field” value is recorded as “alleviated; also recorded: reduced HFD-induced anxiety-like behavior”. Besides, the “total distance travelled, open field” value (INK-ATTAC mice, AP20187 10 mg/kg i.p. vs vehicle) is given as “did not affect”. Also, the “open field parameters (central distance, entries) in chow-fed mice” value (chow-fed INK-ATTAC mice, AP20187 10 mg/kg i.p. vs vehicle) is listed as “did not affect”.

(Values after patent US20210379068A1, “METHODS AND MATERIALS FOR TREATING NEUROPSYCHIATRIC DISORDERS” (Mayo Foundation for Medical Education and Research, priority 2018, published 2021).)
